Results: patent US20240024403A1, “Compositions and Methods for Managing Weight” (Unigen, Inc., priority 2012, published 2024)

Tests used:
[1] = High fat diet induced obesity (DIO) rat model; assay type: in vivo, Spraue-Dawley rats; details: for Total Body Weight: in g (unit assumed)
Experimental: Male Spraue-Dawley rats, age 4-6 weeks (OrientBio, Inc.; Seongnam, Korea) were housed individually in Polycarbonate cages in a room with a 12 hr:12 hr light-dark cycle and an ambient temperature of 24° C. All the rats were fed a commercial chow diet for 1 week after arrival in the animal facility. Rats were then divided into normal and obesity groups and fed with normal diet (ND) and high fat diets (HFD) respectively. The HFD group was divided into multiple treatment groups: a high fat diet vehicle group (HFD), an orlistat (purchased as OTC drug Alli®) positive control treatment group (ORI, 80 mg/kg of animal weight, 2 times/day). In some examples, sibutramine was used as a positive control (SIB, 3 mg/kg for rat studies and […] for mice studies).
Body weight was measured once or twice per week and feed intake was measured twice per week. Body weight gain was determined for each study group by measurement of the body weight difference for each study group between each successive week of the study. At the end of the experimental period, following a 12-h fasting period, the animals were anesthetized with ether, and blood was drawn from the abdominal vein. Liver and kidney and adipose tissues (epididymal, retroperitoneal, perirenal adipose tissues) were removed from each animal, rinsed with physiological saline, and weighted. Serum concentrations of glucose, total cholesterol and LDL-cholesterol were determined using automatic analyzer (INTEGRA 400, Roche, Germany). Statistical significance of test results was performed by Student's t-test.

leptin = assay: Plasma leptin level in DIO mice (ELISA); assay type: in vivo
Experimental: (§1) Obese mice were treated with various three component compositions to test the anti-obesity and appetite effects of such compositions. Three component Composition 1 (Magnolia:Morus:Yerba Mate) produced according to the Example 38, three component Composition 2 (Magnolia:Morus:Mutamba) produced according to the Example 42, three component Composition 3 (Morus: Rosemary:Yerba Mate) produced according to the Example 39, and three component Composition 9 (Morus:Rosemary:Areca) produced according to the Example 41, were each separately administrated orally to DIO mice as described in the Example 48. The high fat diet (HFD) mice were divided into multiple treatment groups with a total of 10 animals per group. The mice were treated with one of the following: Composition 1 (1300 mg/kg/day), Composition 2 (1300 mg/kg/day), Composition 3 (1700 mg/kg/day), or Composition 9 (1700 mg/kg/day). Control groups included a normal diet group given vehicle only (ND, negative control), a high fat diet group given vehicle only (HFD, negative control), an orlistat group (ORI, 40 mg/kg, 2 times/day, positive control), and a sibutramine group (10 mg/kg, 1 time/day, positive control). Body weight and feed intake were measured daily for 2 weeks after treatment and then twice a week until the end of the 7 week study. At week 2 and week 7 after treatment, mice were fasted for 16 hours and then five animals were examined to measure plasma concentrations of leptin and ghrelin. Leptin and ghrelin levels were measured by using commercial ELISA kits specific for leptin or ghrelin (Millipore Co., Billerica, MA) according to the manufacturer's instructions. Measurements were taken using a microplate reader (Victor™ X3, PerkinElmer Inc., USA) and analyzed with PerkinElmer 2030 workstation computer software.

ghrelin = assay: Plasma active ghrelin level in DIO mice (ELISA); assay type: in vivo
Experimental: as §1

[2] = SIB 3 mg/kg, DIO rats, blood at end of study
[3] = SIB 3 mg/kg, rats fed a high fat diet
[4] = SIB 3 mg/kg, rats fed a high fat diet, 42 days
[5] = DIO mice plasma, 2-week treatment
[6] = DIO mice plasma, 7-week treatment

CC(C)CC(N(C)C)C1(c2ccc(Cl)cc2)CCC1 (stereo not shown) [SIB, sibutramine]
Fasting Glucose [1, 2]: 136.00 mg/dL | T-chol [1, 2]: 106.60 mg/dL | Triglyceride [1, 2]: 41.10 mg/dL | Fat Deposit Weight: Epididymal Fat [1, 3]: 6.698 | Fat Deposit Weight: Perirenal Fat [1, 3]: 1.562 | Fat Deposit Weight: Retroperitoneal Fat [1, 3]: 3.190 | Fat Deposit Weight: Total Fat [1, 3]: 11.450 | Food Efficiency Ratio (FER) [1, 4]: 0.155 | Food Intake [1, 4]: 13.880 g/day | Weight Gain [1, 4]: 2.160 g/day | Total Body Weight ([1]; day 0, SIB 3 mg/kg, DIO rats): 364.15 | Total Body Weight ([1]; day 1, SIB 3 mg/kg, DIO rats): 368.06 | Weight Gain ([1]; day 1 vs day 0, SIB 3 mg/kg, DIO rats): 3.91 | Total Body Weight ([1]; day 2, SIB 3 mg/kg, DIO rats): 356.78 | Weight Gain ([1]; day 2 vs day 0, SIB 3 mg/kg, DIO rats): −7.37 | Total Body Weight ([1]; day 3, SIB 3 mg/kg, DIO rats): 357.21 | Weight Gain ([1]; day 3 vs day 0, SIB 3 mg/kg, DIO rats): −6.94 | Total Body Weight ([1]; day 4, SIB 3 mg/kg, DIO rats): 358.78 | Weight Gain ([1]; day 4 vs day 0, SIB 3 mg/kg, DIO rats): −5.37 | Total Body Weight ([1]; day 7, SIB 3 mg/kg, DIO rats): 368.11 | Weight Gain ([1]; day 7 vs day 0, SIB 3 mg/kg, DIO rats): 3.96 | Total Body Weight ([1]; day 10, SIB 3 mg/kg, DIO rats): 377.69 | Weight Gain ([1]; day 10 vs day 0, SIB 3 mg/kg, DIO rats): 13.54 | Total Body Weight ([1]; day 14, SIB 3 mg/kg, DIO rats): 388.70 | Weight Gain ([1]; day 14 vs day 0, SIB 3 mg/kg, DIO rats): 24.55 | Total Body Weight ([1]; day 18, SIB 3 mg/kg, DIO rats): 395.38 | Weight Gain ([1]; day 18 vs day 0, SIB 3 mg/kg, DIO rats): 31.23 | Total Body Weight ([1]; day 21, SIB 3 mg/kg, DIO rats): 407.06 | Weight Gain ([1]; day 21 vs day 0, SIB 3 mg/kg, DIO rats): 42.91 | Total Body Weight ([1]; day 24, SIB 3 mg/kg, DIO rats): 414.91 | Weight Gain ([1]; day 24 vs day 0, SIB 3 mg/kg, DIO rats): 50.75 | Total Body Weight ([1]; day 28, SIB 3 mg/kg, DIO rats): 425.99 | Weight Gain ([1]; day 28 vs day 0, SIB 3 mg/kg, DIO rats): 61.84 | Total Body Weight ([1]; day 31, SIB 3 mg/kg, DIO rats): 432.32 | Weight Gain ([1]; day 31 vs day 0, SIB 3 mg/kg, DIO rats): 68.17 | Total Body Weight ([1]; day 35, SIB 3 mg/kg, DIO rats): 442.55 | Weight Gain ([1]; day 35 vs day 0, SIB 3 mg/kg, DIO rats): 78.40 | Total Body Weight ([1]; day 38, SIB 3 mg/kg, DIO rats): 447.66 | Weight Gain ([1]; day 38 vs day 0, SIB 3 mg/kg, DIO rats): 83.51 | Total Body Weight ([1]; day 42, SIB 3 mg/kg, DIO rats): 454.96 | Weight Gain ([1]; day 42 vs day 0, SIB 3 mg/kg, DIO rats): 90.81 | blood biochemistry parameters vs HFD group ([1]; sibutramine 3 mg/kg): no statistically significant changes compared to the HFD group for any of the measured endpoints | body weight gain vs HFD group ([1]; sibutramine 3 mg/kg): statistically significant decreases in body weight gains from day 2 to completion of the study on day 42 | organ and fat pad weights vs HFD group ([1]; sibutramine 3 mg/kg): statistically significant decreases in all categories of fat measurement | total body weight vs HFD group ([1]; sibutramine 3 mg/kg): statistically significant reduction in body weight at day 2 through the remainder of the study (day 42) | weight gain per day, food intake per day, food efficiency ratio (FER) vs HFD group ([1]; sibutramine 3 mg/kg): statically lower values than the HFD group for Weight Gain per day, Food Intake per day, and Food Efficiency Ratio | Leptin (ng/ml) 2-week (leptin; [5]): 17.0 ± 0.43 ng/mL | Leptin (ng/ml) 7-week (leptin; [6]): 20.4 ± 0.00 ng/mL | plasma leptin level vs HFD group (leptin; week 2 and week 7, Composition 2 1300 mg/kg/day, orlistat 40 mg/kg 2 times/day, sibutramine 10 mg/kg 1 time/day): somewhat reduced leptin level after 2 weeks of treatment | Active Ghrelin (pg/ml) 2-week (ghrelin; [5]): 1001.3 pg/mL | Active Ghrelin (pg/ml) 7-week (ghrelin; [6]): 600.1 pg/mL | active ghrelin level vs HFD group (ghrelin; week 2 and week 7, orlistat 40 mg/kg 2 times/day, sibutramine 10 mg/kg 1 time/day): no effect on active ghrelin levels at either week 2 or week 7
